Data taken from patent publication US20210299162A1, “MOLECULAR HYDROGEN-CONTAINING COMPOSITION FOR PREVENTION AND/OR IMPROVEMENT OF ENCEPHALITIS AND/OR MENINGITIS AND SYMPTOM ASSOCIATED WITH THE ENCEPHALITIS AND/OR MENINGITIS” (MiZ Company Limited, priority 2020, published 2021).

Key:
[1] = room temperature, normal pressure; also printed as 1.6 mg/L; cited from earlier work
meningococcal meningitis = conditions: person
Procedure: The case patient is person. The patient presenting with pyrexia and disturbance of consciousness was admitted to hospital urgently. […] The patient initiated inhalation, which was performed for one to three hours per day for one month using a hydrogen gas generator “Jobs-α” (a hydrogen concentration, 4% to 6%; generation rate of hydrogen gas, 200 mL/min) manufactured by MiZ Company Limited.

Compound	concentration dissolved in water (solubility) [1]	clinical course (meningococcal meningitis; relapse after ceftriaxone, inhalation one to three hours per day for one month, hydrogen concentration 4% to 6%, 200 mL/min (Jobs-α))	brain MRI (ventriculitis) (meningococcal meningitis; after hydrogen inhalation one to three hours per day for one month, hydrogen concentration 4% to 6%)	symptoms (pyrexia, disturbance of consciousness) (meningococcal meningitis; administered for 17 days)	course after completion of the administration (meningococcal meningitis; after 17 days of administration)
[HH] [hydrogen, molecular hydrogen]	approximately 1.6 ppm	began to improve	improvement of ventriculitis		
CO/N=C(\C(=O)N[C@@H]1C(=O)N2C(C(=O)O)=C(CSc3nc(=O)c(=O)[nH]n3C)CS[C@H]12)c1csc(N)n1 [Ceftriaxone, reference compound]				resolved symptoms	relapse
